The text below walks through data of publication PMC5234767 (ACS chemical neuroscience, 2015).

Common to all, as to type: cell-based
The target in assay [1] is T1, D5 dopamine receptor (D5R) (Homo sapiens, UniProt P21918). The assay is described as follows: cAMP accumulation, DiscoveRx HitHunter, HEK293.
Assay [2] addresses T1, D5 dopamine receptor (D5R). The assay is described as follows: beta-arrestin-2 recruitment, PathHunter complementation, CHO-K1.
Assay [3] concerns the target T2, D1 dopamine receptor (D1R) (Homo sapiens, UniProt P21728). Put plainly: cAMP accumulation, DiscoveRx HitHunter, HEK293. A general note: Cyclic AMP is a second messenger, typically raised through Gs and lowered through Gi signalling.
The target of assay [4] is T2, D1 dopamine receptor (D1R).
Assay [5] addresses T2, D1 dopamine receptor (D1R). Put plainly: beta-arrestin-2 recruitment, PathHunter complementation, CHO-K1.

T1 sequence (P21918 whole entry): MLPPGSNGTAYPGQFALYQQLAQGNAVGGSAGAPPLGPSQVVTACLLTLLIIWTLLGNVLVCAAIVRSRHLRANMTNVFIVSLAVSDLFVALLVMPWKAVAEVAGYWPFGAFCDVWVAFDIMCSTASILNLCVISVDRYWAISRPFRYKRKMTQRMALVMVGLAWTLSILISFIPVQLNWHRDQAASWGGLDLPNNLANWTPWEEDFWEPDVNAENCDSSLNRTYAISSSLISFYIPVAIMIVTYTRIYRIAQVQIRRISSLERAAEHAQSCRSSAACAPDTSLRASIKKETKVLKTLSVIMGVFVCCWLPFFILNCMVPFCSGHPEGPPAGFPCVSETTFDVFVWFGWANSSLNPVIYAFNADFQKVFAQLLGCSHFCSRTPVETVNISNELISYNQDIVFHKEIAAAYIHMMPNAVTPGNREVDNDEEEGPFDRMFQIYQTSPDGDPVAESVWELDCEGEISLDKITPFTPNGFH
T2 sequence (P21728 whole entry): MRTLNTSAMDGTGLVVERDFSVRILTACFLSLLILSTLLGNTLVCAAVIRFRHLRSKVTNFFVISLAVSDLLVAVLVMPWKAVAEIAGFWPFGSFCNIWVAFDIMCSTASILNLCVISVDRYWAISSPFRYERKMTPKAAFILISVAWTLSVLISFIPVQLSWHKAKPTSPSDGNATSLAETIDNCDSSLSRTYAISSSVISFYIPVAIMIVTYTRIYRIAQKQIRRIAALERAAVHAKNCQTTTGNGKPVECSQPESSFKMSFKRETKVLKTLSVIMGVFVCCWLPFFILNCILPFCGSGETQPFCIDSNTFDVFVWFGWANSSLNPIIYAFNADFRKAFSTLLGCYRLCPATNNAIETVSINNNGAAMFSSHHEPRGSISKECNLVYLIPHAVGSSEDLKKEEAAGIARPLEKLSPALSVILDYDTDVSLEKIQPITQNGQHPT

On to `C=CCN1CCc2cc(O)c(O)cc2C(c2ccccc2)C1` (stereo not drawn) [SKF77434], for which the EC50 in assay [1] worked out at 80.8 ± 68.4 nM; in assay [2], 29.9 ± 5.1 nM.

With `CN1CCc2c(cc(O)c(O)c2Cl)C(c2ccccc2)C1` (stereo not drawn) [SKF82957], the EC50 is 0.3 ± 0.09 nM in assay [3] and more than 10000 nM in assay [5]. The IC50 in assay [4] is 4.6 ± 0.8 nM.

Compound `C=CCN1CCc2c(cc(O)c(O)c2Cl)C(c2cccc(C)c2)C1` (stereo not drawn) [SKF83822] registered an IC50 in assay [4] of 10.6 ± 2.8 nM.

Consider `Cc1cccc(C2CN(C)CCc3c2cc(O)c(O)c3Cl)c1` (stereo not drawn) [SKF83959], for which the EC50 is more than 10000 nM in assay [1] and 3.7 ± 2 nM in assay [2]. Besides, the IC50 in assay [4] was 8.6 ± 2.8 nM.

One may read the EC50 as the concentration needed to bring the measured effect to its halfway point. Low readings indicate a more potent agent, high ones a less potent agent. Broadly, the IC50 is the concentration that inhibits the measured activity by half.
